The source of these data is patent US10899754B2, “Modulators of indoleamine 2,3-dioxygenase” (GLAXOSMITHKLINE INTELLECTUAL PROPERTY DEVELOPMENT LIMITED, priority 2016, dated 2021).

What all share (format): cell-based
In data set [1] the test system is human epithelial HeLa cells. The data set can be described thus: HeLa cytotoxicity assay (CellTiter-Glo). As to conditions: pCC50. The essentials:
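HeLa cells (5,000/well) stimulated with 10 nM IFN-γ, exposed to 11-point 3-fold compound dilutions for 2 days at 37 °C; viability by CellTiter-Glo ATP luminescence. Normalized to cell-free (100% cytotoxicity) and stimulated-cell DMSO (0%) controls; four-parameter fit gives pCC50.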

Data set [2] concerns human peripheral blood mononuclear cells (PBMC). The data set can be described thus: PBMC cytotoxicity assay (CellTiter-Glo). The following applies: 2 days, pCC50. The procedure, abridged: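 Human PBMC (50,000 cells/well) stimulated with IFN-γ 100 ng/ml and LPS 50 ng/ml were exposed to 11-point 3-fold compound dilutions for 2 days at 37 °C, 5% CO2. Viability read by CellTiter-Glo ATP luminescence and normalized to no-cell and stimulated-DMSO controls. XC50 derived by four-parameter fit.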
(In general: Cellular ATP, detected with luciferase, serves as a proxy for viable cell number.)

For data set [3], the target named is T1, indoleamine 2, 3-dioxygenase (IDO1) (Homo sapiens, UniProt P14902). Briefly: IDO1 HeLa RapidFire MS assay (kynurenine detection by mass spectrometry). Set-up: to induce the expression of indoleamine 2, 3-dioxygenase (IDO1). As to conditions: HeLa cells, pIC50, read-out: IDO1_HELA_PXC50 (converted). The procedure, abridged: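 Compound potency reported as pIC50 from kynurenine/internal-standard ratio (RapidFire MS) in supernatant of IFN-γ-induced (10 nM) HeLa cells, 5,000 per well, after 2 days' treatment with 11-point dilutions. Cytotoxicity in the same format by luminescent ATP detection, reported as pCC50.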

Data set [4] deals with T1, indoleamine 2, 3-dioxygenase (IDO1). Briefly: IDO1 PBMC RapidFire MS assay (kynurenine detection by mass spectrometry). Set-up: to induce the expression of indoleamine 2, 3-dioxygenase (IDO1); host or cells: human PBMC stimulated with IFN-gamma and LPS. The following applies: human PBMC stimulated with IFN-γ and LPS, 2 days, pIC50, read-out: PBMC PXC50 (converted). The procedure, abridged:
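PBMCs (50,000 cells/well) stimulated with IFN-γ 100 ng/ml plus LPS 50 ng/ml, treated with 11-point 3-fold compound series for 2 days at 37° C. Supernatant kynurenine measured by RapidFire MS, normalised to internal standard; parallel cytotoxicity by CellTiter-Glo luminescence; curves fitted for XC50.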

Each structure is given as a SMILES string.

T1 sequence (P14902 whole entry): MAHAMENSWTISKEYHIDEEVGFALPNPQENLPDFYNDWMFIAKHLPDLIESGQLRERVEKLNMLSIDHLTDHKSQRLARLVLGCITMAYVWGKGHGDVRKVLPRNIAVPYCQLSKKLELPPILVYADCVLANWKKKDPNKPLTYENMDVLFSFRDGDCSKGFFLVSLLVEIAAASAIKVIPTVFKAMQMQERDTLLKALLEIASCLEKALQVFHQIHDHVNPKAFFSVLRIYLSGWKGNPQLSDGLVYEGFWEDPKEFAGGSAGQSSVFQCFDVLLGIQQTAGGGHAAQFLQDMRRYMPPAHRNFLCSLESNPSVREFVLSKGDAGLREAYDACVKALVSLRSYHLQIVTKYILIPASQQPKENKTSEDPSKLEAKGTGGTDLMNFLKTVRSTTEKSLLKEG

In turn, `CC[C@H](CC(=O)O)c1ccc(N(CC(C)C)C2CCCCC2)c(Nc2nc(C(F)(F)F)ns2)c1` [Example 38, (R)-3-(4-(cyclohexyl(isobutyl)amino)-3-((3-(trifluoromethyl)-1,2,4-thiadiazol-5-yl)amino)phenyl)pentanoic Acid] displayed an HELA_IDO1_TOX_PXC50 in data set [1] of under 5. The “PBMC TOX PXC50” value in data set [2] is under 5. Also, the IC50 was 2 nM in data set [3] and 0.794 nM in data set [4].

Regarding `CC(C)CN(c1ccc([C@H](C)CC(=O)O)cc1Nc1ccc(Cl)nc1)[C@H]1CC[C@@H](O)CC1` [Example 58, (R)-3-(3-((6-chloropyridin-3-yl)amino)-4-(((1s,4S)-4-hydroxycyclohexyl) (isobutyl)amino)phenyl)butanoic Acid], the HELA_IDO1_TOX_PXC50 in data set [1] is on record as under 5. Also, the “PBMC TOX PXC50” value in data set [2] was under 5. The IC50 in data set [3] was 10 nM; in data set [4], 7.94 nM.

In data set [1], `CC(C)CN(c1ccc(-c2ccccc2C(=O)O)cc1Nc1nc(C(F)(F)F)ns1)[C@H]1CC[C@H](O)CC1` [Example 112, 4′-(((1r,4r)-4-hydroxycyclohexyl) (isobutyl)amino)-3′-((3-(trifluoromethyl)-1,2,4-thiadiazol-5-yl)amino)-[1,1′-biphenyl]-2-carboxylic Acid] yielded an HELA_IDO1_TOX_PXC50 of under 5. Also, the “PBMC TOX PXC50” value in data set [2] amounted to 6.1. For the same molecule, the IC50 was 15.8 nM in data set [3] and 7.94 nM in data set [4].

Molecule `CC(C)CN(CC(C)C)c1ccc(C(C)CC(=O)O)cc1-n1nnnc1N` (centres unmarked) [example 167, 3-[3-(5-amino-1H-1,2,3,4-tetrazol-1-yl)-4-[bis(2-methylpropyl)amino]phenyl]butanoic acid] showed an HELA_IDO1_TOX_PXC50 in data set [1] of under 5. In addition, the “PBMC TOX PXC50” value in data set [2] was under 5. Besides, the IC50 was over 10000 nM in data set [3] and 6310 nM in data set [4].

`CC(C)CN(c1ccc([C@H](C)CC(=O)O)cc1Nc1ccc(Cl)nc1)C1CCCCC1` [Example 74, (R)-3-(3-((6-chloropyridin-3-yl)amino)-4-(cyclohexyl(isobutyl)amino)phenyl)butanoic Acid] had an HELA_IDO1_TOX_PXC50 in data set [1] of under 5. Moreover, in data set [2], the “PBMC TOX PXC50” value came out at 6.5. Besides, the IC50 in data set [3] was 3.98 nM; in data set [4], 0.794 nM.

In turn, `CC(C)CN(c1ccc(-c2cnccc2C(=O)O)cc1Nc1nc2ccccc2o1)C1CCCCC1` [example 289, 3-{3-[(1,3-benzoxazol-2-yl)amino]-4-[cyclohexyl(2-methylpropyl)amino]phenyl}pyridine-4-carboxylic acid] returned an HELA_IDO1_TOX_PXC50 in data set [1] of under 5. In data set [2], the “PBMC TOX PXC50” value is listed as under 5. Moreover, the IC50 in data set [3] is 1260 nM; in data set [4], 501 nM.

Molecule `CC(C)CN(c1ccc([C@H](C)CC(=O)O)cc1NC1CCC1)C1CCCCC1` [example 181, (3R)-3-[3-(cyclobutylamino)-4-[cyclohexyl(2-methylpropyl)amino]phenyl]butanoic acid] came in with an HELA_IDO1_TOX_PXC50 in data set [1] of under 5. Further, the “PBMC TOX PXC50” value in data set [2] is reported as under 5. Besides, the figures for the IC50 in data set [3] and in data set [4] were 316 nM and 158 nM, respectively.

In turn, `CC(C)CN(c1ccc([C@H](C)CC(=O)O)cc1Nc1ccc(Cl)cn1)C1CCCCC1` [Example 75, (R)-3-(3-((5-chloropyridin-2-yl)amino)-4-(cyclohexyl(isobutyl)amino)phenyl)butanoic Acid] displayed an HELA_IDO1_TOX_PXC50 in data set [1] of under 5. The “PBMC TOX PXC50” value in data set [2] was under 5. In addition, the IC50 is 3.16 nM in data set [3] and 1.58 nM in data set [4].

In turn, `CC(C)CN(c1ccc([C@H](C)CC(=O)O)cc1Nc1cccc(Cl)n1)C1CCCCC1` [example 169, (3R)-3-{3-[(6-chloropyridin-2-yl)amino]-4-[cyclohexyl(2-methylpropyl)amino]phenyl}butanoic acid] yielded an HELA_IDO1_TOX_PXC50 in data set [1] of under 5. Besides, the “PBMC TOX PXC50” value in data set [2] is listed as under 5. For the same molecule, the IC50 in data set [3] is 25.1 nM; in data set [4], 7.94 nM.

Consider `CC(C)CN(c1ccc(C(C)OCC(=O)O)cc1Nc1nc2ccccc2[nH]1)C1CCCCC1` (centres unmarked) [example 173, 2-(1-{3-[(1H-1,3-benzodiazol-2-yl)amino]-4-[cyclohexyl(2-methylpropyl)amino]phenyl}ethoxy)acetic acid], for which the HELA_IDO1_TOX_PXC50 in data set [1] was under 5. The “PBMC TOX PXC50” value in data set [2] is under 5. The values for the IC50 in data set [3] and in data set [4] were 20 nM and 25.1 nM, respectively.

In turn, `CO[C@H]1CC[C@@H](N(CC(C)C)c2ccc([C@H](C)CC(=O)O)cc2Nc2n[nH]c(Cl)n2)CC1` [Example 61, (R)-3-(3-((5-chloro-1H-1,2,4-triazol-3-yl)amino)-4-(isobutyl((cis)-4-methoxycyclohexyl)amino)phenyl)butanoic Acid] yielded an HELA_IDO1_TOX_PXC50 in data set [1] of under 5. Besides, in data set [2], the “PBMC TOX PXC50” value was under 5. Further, the IC50 in data set [3] was 6.31 nM; in data set [4], 2 nM.

Molecule `CC(C)CN(CC(C)C)c1ccc(C(C)CC(=O)O)cc1Nc1nnn[nH]1` (centres unmarked) [example 168, 3-{4-[bis(2-methylpropyl)amino]-3-[(1H-1,2,3,4-tetrazol-5-yl)amino]phenyl}butanoic acid] had an HELA_IDO1_TOX_PXC50 in data set [1] of under 5. For the same molecule, in data set [2], the “PBMC TOX PXC50” value was under 5. Also, the IC50 in data set [3] and in data set [4] was over 10000 nM in each case.

In turn, `CC(C)CN(CC(C)C)c1ccc(-c2ccccc2C(=O)O)cc1Nc1nc(C(F)(F)F)ns1` [Example 90, 4′-(diisobutylamino)-3′-((3-(trifluoromethyl)-1,2,4-thiadiazol-5-yl)amino)-[1,1′-biphenyl]-2-carboxylic Acid] displayed an HELA_IDO1_TOX_PXC50 in data set [1] of under 5. Also, in data set [2], the “PBMC TOX PXC50” value is given as under 5. In addition, the IC50 in data set [3] is 25.1 nM; in data set [4], 10 nM.

In turn, `CC(C)CN(c1ccc([C@H](C)CC(=O)O)cc1Nc1nc(C(F)(F)F)cs1)C1CCOCC1` [Example 22, (R)-3-(4-(Isobutyl(tetrahydro-2H-pyran-4-yl)amino)-3-((4-(trifluoromethyl)thiazol-2-yl)amino)phenyl)butanoic Acid] returned an HELA_IDO1_TOX_PXC50 in data set [1] of under 5. In addition, the “PBMC TOX PXC50” value in data set [2] is listed as under 5. Also, the IC50 in data set [3] and in data set [4] was 2.51 nM each time.

Regarding `CC(C)CN(CC(C)C)c1ccc([C@H](C)CC(=O)NS(C)(=O)=O)cc1Nc1nc(C(F)(F)F)ns1` [Example 109, (R)-3-(4-(diisobutylamino)-3-((3-(trifluoromethyl)-1,2,4-thiadiazol-5-yl)amino)phenyl)-N-(methylsulfonyl)butanamide], the HELA_IDO1_TOX_PXC50 in data set [1] is listed as under 5. Further, the “PBMC TOX PXC50” value in data set [2] is under 5. Besides, the IC50 in data set [3] was 31.6 nM; in data set [4] it was 10 nM.

In the case of `CC(C)CN(CC(C)C)c1ccc(C(C)CC(=O)O)cc1Nc1nc(-c2ccccc2)ns1` (centres unmarked) [example 115, 3-{4-[bis(2-methylpropyl)amino]-3-[(3-phenyl-1,2,4-thiadiazol-5-yl)amino]phenyl}butanoic acid], in data set [1], the HELA_IDO1_TOX_PXC50 is under 4.3. For the same molecule, the “PBMC TOX PXC50” value in data set [2] is on record as 4.9. The results for the IC50 in data set [3] and in data set [4] were 3160 nM and 2000 nM, respectively.

`COc1ncc(Nc2cc([C@H](C)CC(=O)O)ccc2N(CC(C)C)C2CCOCC2)cn1` [Example 15, (R)-3-(4-(isobutyl(tetrahydro-2H-pyran-4-yl)amino)-3-((2-methoxypyrimidin-5-yl)amino)phenyl)butanoic Acid] returned an HELA_IDO1_TOX_PXC50 in data set [1] of under 5. Also, in data set [2], the “PBMC TOX PXC50” value was under 5. Further, the IC50 was 7.94 nM in data set [3] and 3.16 nM in data set [4].
